Experiments:
Format in all cases: cell-based, S. cerevisiae
[1] = tested on: ADE2; experiment: eMAGE allelic replacement frequency at Ori-URA3-ADE2 locus (5-FOA selection, red/white screening)
Protocol: A list of ssODNs used for FIGS. 1-4 in this study can be found in Table 2. For eMAGE experiments, a single colony was inoculated in 2 mL CSM-Ura medium and grown overnight to saturation. The next day the culture was diluted 1:50 in 10 mL of CSM-Ura and grown for 6 hours prior to electroporation. The ssODN concentration and size were determined from optimization experiments performed in Figure S2D,F. A total of 20 uM of 90nt ssODNs consisting of 50% selection ssODN 50% target ssODN(s) was used for eMAGE transformations. The optimal HU concentration was determined from figure S2A. The eMAGE pretreatment mixture contained 500 mM HU in TE pH 8/500 mM Lithium Acetate/25 mM DTT. Electroporation for eMAGE was performed exactly as described above. After 12 hours of recovery, ˜10^5 cells were plated on 5-FOA selection plates for msh2Δ and MMR mutant strains and ˜10^7 cells were plated for strains with WT MMR. The resultant 5-FOA plates contained ˜100 colonies which were subject to screening for target ssODN incorporation. The indicated ARF values represent mean+/−SD. All data sets were collected in triplicate. For the Rad51 chemical inhibitor experiment (Figure S1J) the recovery medium was supplemented with inhibitor RI-1 (Abcam ab144558)+1.5% DMSO for solubility.
Experiments were designed to determine if Rad51-dependent ssODN recombination and incorporation of ssODNs at the DNA replication fork are two distinct pathways in eukaryotes (FIG. 1A). Unlike the E. coli chromosome, the linear chromosomes of S. cerevisiae contain multiple firing origins of replication that confound the precise designation of the lagging strand at each locus (Raghuraman, et al., Science, 294:115-121 (2001); Wyrick, et al., Science, 294:2357-2360 (2001)). Sherman and colleagues observed high frequencies of co-transformation for two ssODNs targeted within a cyc1 mutant gene when one of the ssODNs included a selectable mutation (Yamamoto, et al., Yeast, 8:935-948 (1992a)). […] Experiments were designed to determine whether Sherman's observation could be expanded for ssODNs targeting multiple proximal genes by constructing an experimental locus on chromosome XV with a defined DNA replication direction by placing the URA3 gene proximal to the origin ARS1516 (Ori) directly adjacent to ADE2, which confers a colorimetric phenotype (WT=white; Mutant=red) (FIG. 1C). Cells were transformed with ssODNs targeting the predicted lagging strand of both URA3 and ADE2, and it was observed that ssODN-derived modifications at ADE2 were increased by >10^4-fold (ARF=22%) in URA3-edited (5-FOA resistant) clones (FIG. 1C). […]

[2] = tested on: ADE2; experiment: Multiplex incorporation of ssODNs and cycling (colony PCR and Sanger sequencing); settings: 10-target multiplexing, with HU
Protocol: For multiplex eMAGE experiments targeting ADE2, red clones that grew on 5-FOA plates were assayed via yeast colony PCR and Sanger sequencing (Genewiz). Insertions were chosen for easy sequence detection since degenerate mismatches would contain WT sequence positions. For cycling experiments, cells were recovered in recovery media after electroporation as described above. After recovery, the population was subjected to liquid selection in 5-FOA for odd cycles and CSM-Ura for even numbered cycles to enrich for edited clones. Selections were performed for 500 uL of recovery culture seeded into 50 mL of selection medium and grown to saturation at 30° C. (˜2 days).
After the first 1:100 selection the population was diluted 1:50 in selection media and grown for 6 hours for the next electroporation step. The process was repeated for 3 cycles. A total of 100 red clones were sequenced after each cycle. For cycles 1 and 2, 200 unique genotypes were observed out of […], but for cycle 3, 76 unique genotypes were observed out of the 100 clones sequenced. Given that the degeneracy of the ssODN pool largely out-scales the number of clones assayed redundant genotypes would not be expected to arise for independent clones in any cycle assayed. The 24 redundant clones observed in cycle 3 were comprised of 5 genotypes. […]

[3] = tested on: URA3; experiment: Spontaneous URA3 mutations with transient HU treatment
Protocol: Experiments were designed to determine if transient treatment with HU would increase the efficiency for ssODN annealing at the replication fork. A 30 minute treatment with 500 mM HU increased the ARF by ˜two-fold compared to the untreated condition. Seven different ssODNs containing a single base-pair mismatch (ssODNs 1,2,5-7), insertion (ssODN #4), or deletion (ssODN #3) in ADE2 were tested and an average ARF increase of 56% (FIG. 2A) was observed. […] The effect of ssODN size and concentration was also tested. Robust cell survival post electroporation (85%) was tested for ssODN concentrations up to 20 uM, which decreased to 45% at 80 uM ssODN. The efficiency of URA3 single-plex targeting increased with increasing ssODN size and concentration with the highest ARF observed (0.08%) for 100nt ssODN at 60 uM. For coupled ADE2-URA3 targeting an optimum ade2 mutant per 5-FOA CFU was determined using a 90nt ssODN at 20 uM. For all subsequent experiments 90nt ssODNs at 20 uM were used.

[4] = tested on: target sites at increasing distances from the URA3 marker; experiment: Target distance efficiency determination (red/white screening or colony PCR with EcoRI digestion); settings: +HU
Protocol: Target mutation distance is reported as the distance between the URA3 marker mutation incorporated by the selection-ssODN and the mutation incorporated by the target-ssODN. For target distances of 1 and 2 kb, ssODNs ADE290RC and ADE2_Mult10 were used within the ADE2 gene and the ARFs for these sites were determined by red/white phenotype screening. For targets at 5, 10, 15, and 20 kb distances from the Ori-URA3, target sites were chosen that differ by only a single base-pair from an EcoRI restriction site. The target ssODN was designed to incorporate a base-pair change to create the EcoRI restriction site. For each target assayed, 96 clones were analyzed by colony PCR (Primers for the amplicons analyzed are listed in Table 3) coupled to EcoRI (NEB) digestion of the amplicon for 1 hr at 37° C. The percentage of amplicons cut vs. uncut is represented as the ARF for each distance site. Each distance experiment was performed in triplicate+/−HU treatment. ARF values represent mean+/−SD.

SMILES | ARF change with Rad51 inhibitor ([1]; recovery medium supplemented with RI-1 + 1.5% DMSO) | multiplex enhancement of ssODN incorporation ([2]; WT) | mean number of ssODNs incorporated ([2]; msh2Δ) [per clone] | spontaneous URA3 mutations [3] | ARF vs target distance curve fit, Y0 ([4]; one-phase decay Y=(Y0−Z)*exp(−K*X)+Z) | ARF vs target distance curve fit, K ([4]; one-phase decay fit) | ARF vs target distance curve fit, Z ([4]; one-phase decay fit) | increase of ARF compared to the untreated condition ([1]; 30 minute treatment with 500 mM HU) | HU effect on ARF with HIS3 selection marker ([1]; HIS3 selection marker in replace of URA3) | average ARF increase ([1]; HU treatment, seven ssODNs with single base-pair mismatch, insertion or deletion in ADE2) [%]
O=C1C(Cl)=C(N2CCOCC2)C(=O)N1c1ccc(Cl)c(Cl)c1 [RI-1] | ARF enhancement was observed | – | – | – | – | – | – | – | – | –
NC(=O)NO [HU, Hydroxyurea] | – | no multiplex enhancement | 3.4 | no significant increase | 49.6 | 0.279 | 2.25 | two-fold | HU effect was also observed | 56

From patent US11725204B2, “Multiplex genome engineering in eukaryotes” (priority 2016, dated 2023)
